Experimental data: paper PMC3141083 (Journal of medicinal chemistry, 2011)

test system: KB (nasopharyngeal); experiment: Cytotoxicity; assay type: cell-based; conditions: KB cell line

In order of falling “GI50 KB” value:
1. COc1ccc2c3c(c4cc(OC)c(OC)cc4c2c1)C[C@H]1CCCCCN1C3 [Compound 15]  102 ± 19 nM
2. COc1ccc2c3c(c4cc(OC)c(OC)cc4c2c1)C[C@H]1CCOCCN1C3 [Compound 16]  68 ± 10 nM
3. COc1ccc2c3c(c4cc(OC)c(OC)cc4c2c1)C[C@H]1COCCN1C3 [Compound 11, (S)-13-Oxa-cryptopleurine]  37 ± 9 nM
4. COc1ccc2c3c(c4cc(OC)c(OC)cc4c2c1)C[C@H]1CCCN1C3 [R-antofine, reference compound]  36 ± 8 nM
5. COc1ccc2c3c(c4cc(OC)c(OC)cc4c2c1)C[C@H]1CCCCN1C3 [crypto-pleurine, R-cryptopleurine, reference compound]  1.51 ± 0.33 nM

test system: A549, DU-145, KB, HCT-8 cancer cell lines; experiment: Cytotoxicity screen, stated over the panel of four cancer cell lines; assay type: cell-based; conditions: read-out: GI50 (all tested cancer cell lines)

`COc1ccc2c3c(c4cc(OC)c(OC)cc4c2c1)C[C@H]1CCN(c2ccccc2)CN1C3` [Compound 10b] and `COc1ccc2c3c(c4cc(OC)c(OC)cc4c2c1)C[C@H]1CCN(Cc2ccccc2)CN1C3` [Compound 10d] cannot be ordered by GI50: greater than 20000 nM for the first, greater than 20000 nM for the second.

`COc1ccc2c3c(c4cc(OC)c(OC)cc4c2c1)C[C@@H]1CCOCN1C3` [Compound 14, (R)-12-Oxa-cryptopleurine] and `COc1ccc2c3c(c4cc(OC)c(OC)cc4c2c1)C[C@H]1CCOCN1C3` [Compound 13, (S)-12-Oxa-cryptopleurine] cannot be ordered by GI50: greater than 1000 nM for the first, greater than 1000 nM for the second.

same assay, conditions: read-out: average GI50

`COc1ccc2c3c(c4cc(OC)c(OC)cc4c2c1)C[C@H]1CN(c2ccccc2)CN1C3` [Compound 3f] showed a GI50 greater than 20000 nM.
